# Results from US11179412B2, “Methods of treating conditions involving elevated inflammatory response” (University of Pittsburgh—Of the Commonwealth System of …, priority 2017, dated 2021).
# Structures can show the parent of a compound that is named as a salt.
# Tested on: STING activation (IFNβ release) in iBMDMs
# Experiment: IFNβ release ELISA after STING ligand (or LPS) stimulation, iBMDMs
# Assay type: cell-based, mouse
# Details: iBMDMs; 3′3′-cGAMP 10 μg/ml, 16 hours; compound 10 μM
# Excerpt: Commercially available enzyme-linked immunosorbent assay (ELISA) kits were used to measure the concentrations of mouse IFNβ (Thermo Fisher Scientific) or human IFNβ (Thermo Fisher Scientific) in culture medium according to the manufacturer's instructions. […]
Compound,fold increase in IFN-β release,3′3′-cGAMP-induced IFNβ release
6H05,1.18 fold,–
O=C(O)C(Cc1ccccc1[N+](=O)[O-])=NNc1nc(-c2ccc(Cl)c(Cl)c2)cs1 (mixture of isomers) [4EGI-1],4.14 fold,–
C[C@H]1COC2(CCN(c3nc(=O)c4cc(C(F)(F)F)cc([N+](=O)[O-])c4s3)CC2)O1 (racemic) [BTZ043 Racemate],0.69 fold,–
"N[C@@H]1C[C@H]1c1ccccc1 (racemic) [Tranylcypromine (2-PCPA) HCl, Tranylcypromine]",1.17 fold,–
"COc1cc2c(cc1O)CC[C@@H]1[C@@H]2CC[C@]2(C)[C@@H](O)CC[C@@H]12 [2-Methoxyestradiol (2-MeOE2), 2-Methoxyestradiol]",2.62 fold,–
"O=[N+]([O-])C=Cc1ccc2c(c1)OCO2 [3,4-Methylenedioxy-β-nitrostyrene]",0.26 fold,–
O=C(O)c1ccc(N2C(=O)/C(=C\c3ccc(-c4ccc([N+](=O)[O-])cc4)o3)C=C2c2ccccc2)cc1 [4E1 RCat],2.36 fold,–
CC(C)N(CCC(c1ccccc1)c1cc(CO)ccc1O)C(C)C (stereo not shown) [5-hydroxymethyl Tolterodine],1.10 fold,–
"C=CCNC1=C2C[C@@H](C)C[C@H](OC)[C@H](O)[C@@H](C)/C=C(\C)[C@H](OC(N)=O)[C@@H](OC)/C=C\C=C(/C)C(=O)NC(=CC1=O)C2=O [17-AAG (Tanespimycin), Tanespimycin]",1.53 fold,–
CN1CCc2cc3c(cc2[C@H]1[C@@H]1OC(=O)c2c1ccc1c2OCO1)OCO3 [(+)-Bicuculline],1.26 fold,–
Cl.NCc1c[nH]c(=S)n1[C@@H]1CCc2c(F)cc(F)cc2C1 [(R)-Nepicastat HCl],2.13 fold,–
C[C@H](Oc1cc(-c2cnn(C3CCNCC3)c2)cnc1N)c1c(Cl)ccc(F)c1Cl [(S)-crizotinib],3.05 fold,–
N#Cc1c(O)c2c(-c3ccc(-c4ccccc4O)cc3)csc2[nH]c1=O [A-769662],2.13 fold,–
CC1(C)CCC(CN2CCN(c3ccc(C(=O)NS(=O)(=O)c4ccc(NCC5CCOCC5)c([N+](=O)[O-])c4)c(Oc4cnc5[nH]ccc5c4)c3)CC2)=C(c2ccc(Cl)cc2)C1 [ABT-199 (GDC-0199)],1.78 fold,–
"CC1(C)CCC(c2ccc(Cl)cc2)=C(CN2CCN(c3ccc(C(=O)NS(=O)(=O)c4ccc(N[C@H](CCN5CCOCC5)CSc5ccccc5)c(S(=O)(=O)C(F)(F)F)c4)cc3)CC2)C1 [ABT-263 (Navitoclax), Navitoclax]",1.27 fold,–
CCN(CC)C(=O)c1ccc(C2=CC3(CCNCC3)Oc3cccc(O)c32)cc1 [ADL5859 HCl],0.95 fold,–
O=C(c1ccc(F)cc1)N1CCC[C@H](c2nc(-c3ccc(F)cc3)no2)C1 [ADX-47273],1.72 fold,–
CN(C)Cc1ccc(-c2nc3cccc4c3n2CCNC4=O)cc1 [AG-14361],2.41 fold,–
Cc1ccccc1C(C(=O)NC1CCCCC1)N(C(=O)Cn1ccnc1C)c1cccc(F)c1 (stereo not shown) [AGI-5198],1.13 fold,–
O=C(Nc1cccc(C(F)(F)F)c1)Nc1cc(S(=O)(=O)NC2CC2)ccc1-c1ccsc1 [AGI-6780],2.14 fold,–
CN1CCCCC1Cn1cc(C(=O)c2cc([N+](=O)[O-])ccc2I)c2ccccc21 (stereo not shown) [AM1241],8.07 fold,promoted
CC(=O)Nc1nc2c(Oc3cc(-c4ccc(C(F)(F)F)cc4)ncn3)cccc2s1 [AMG-517],1.18 fold,–

Compound,fold increase in IFN-β release,3′3′-cGAMP-induced IFNβ release
C#CC[C@H](c1nc2cc(Cl)ccc2c(=O)n1Nc1ccccc1)N(CCCN)C(=O)c1cccc(Cl)c1F [ARQ 621],1.87 fold,–
O=C1NC(=O)/C(=C/c2ccc(-c3ccc(F)cc3O)o2)S1 [AS-252424],6.84 fold,promoted
Cc1cc2c(C(C)C)c(O)c(O)c(C=O)c2c(O)c1-c1c(C)cc2c(C(C)C)c(O)c(O)c(C=O)c2c1O [AT101],0.13 fold,–
CCNC(=O)c1noc(-c2cc(C(C)C)c(O)cc2O)c1-c1ccc(CN2CCOCC2)cc1 [AUY922 (NVP-AUY922)],0.93 fold,–
C=CC(=O)Nc1cccc(Nc2nc(Nc3ccc(OCCOC)cc3)ncc2F)c1 [AVL-292],0.16 fold,–
C[C@@H]1COCCN1c1cc(C2(S(C)(=O)=O)CC2)nc(-c2cccc3[nH]ccc23)n1 [AZ20],0.32 fold,–
COc1cc(N2CCN(C)CC2)ccc1Nc1nccc(-c2cn(C)c3cnccc23)n1 [AZ191],2.01 fold,–
COc1cc(OC2CCN(C)CC2)ccc1Nc1ncc2c(n1)n(C1CCCC1)c(=O)n2C [AZ 3146],0.10 fold,–
CC(=O)Nc1cccc2c1c(Sc1ccc(Cl)cc1)c(C)n2CC(=O)O [AZD1981],3.11 fold,–
COC1CCN(C(=O)c2cc(Cc3n[nH]c(=O)c4ccccc34)ccc2F)CC1 [AZD2461],2.12 fold,–
COc1cc(CCc2cc(NC(=O)c3ccc(N4CC(C)NC(C)C4)cc3)n[nH]2)cc(OC)c1 (stereo not shown) [AZD4547],0.35 fold,–
Cc1cc([C@@H](C)Nc2ccccc2C(=O)O)c2nc(N3CCOCC3)cc(=O)n2c1 [AZD6482],4.47 fold,–
CN(C)C(=O)c1ccc(S(=O)(=O)c2ccc(NC(=O)[C@@](C)(O)C(F)(F)F)c(Cl)c2)cc1 [AZD7545],3.45 fold,–
NC(=O)Nc1cc(-c2cccc(F)c2)sc1C(=O)N[C@H]1CCCNC1 [AZD7762],0.45 fold,–
C=CC(=O)Nc1cc(Nc2nccc(-c3cn(C)c4ccccc34)n2)c(OC)cc1N(C)CCN(C)C [AZD9291],0.85 fold,–
NC(=O)c1ncn([C@@H]2O[C@H](CO)[C@@H](O)[C@H]2O)c1N [Acadesine],1.02 fold,–
COc1ccc2cccc(CCNC(C)=O)c2c1 [Agomelatine],0.97 fold,–
Oc1ncnc2[nH]ncc12 [Allopurinol],3.15 fold,–
CCOC(=O)[C@H]1O[C@@H]1C(=O)N[C@@H](CC(C)C)C(=O)NCCC(C)C [Aloxistatin],0.31 fold,–
"Cc1c(-c2ccnn2C)cc(C(=O)NCc2ccc(S(C)(=O)=O)cn2)c(=O)n1-c1cccc(C(F)(F)F)c1 [Alvelestat (AZD9668), Alvelestat]",0.27 fold,–
CCOC(=O)C1=C(COCCN)NC(C)=C(C(=O)OC)C1c1ccccc1Cl (stereo not shown) [Amlodipine],1.46 fold,–
"COc1cc(F)c(C(C)C)cc1-c1ccc(C(F)(F)F)cc1CN1C(=O)O[C@H](c2cc(C(F)(F)F)cc(C(F)(F)F)c2)[C@@H]1C [Anacetrapib (MK-0859), Anacetrapib]",2.12 fold,–

Compound,fold increase in IFN-β release,3′3′-cGAMP-induced IFNβ release
CC(C)(C#N)c1cc(Cn2cncn2)cc(C(C)(C)C#N)c1 [Anastrozole],0.98 fold,–
COc1ccc(C(=O)N2CCCC2=O)cc1 [Aniracetam],1.02 fold,–
N#CC1(c2ccc(NC(=O)c3cccnc3NCc3ccncc3)cc2)CCCC1 [Apatinib],0.26 fold,–
O=c1cc(-c2ccc(O)cc2)oc2cc(O)cc(O)c12 [Apigenin],0.44 fold,–
COc1ccc(-n2nc(C(N)=O)c3c2C(=O)N(c2ccc(N4CCCCC4=O)cc2)CC3)cc1 [Apixaban],2.83 fold,–
O=C1C(=O)N(Cc2ccc(Cl)c(Cl)c2)c2ccccc21 [Apoptosis Activator 2],0.17 fold,–
C[C@@H](O[C@H]1OCCN(Cc2n[nH]c(=O)[nH]2)[C@H]1c1ccc(F)cc1)c1cc(C(F)(F)F)cc(C(F)(F)F)c1 [Aprepitant],0.76 fold,–
"O=C(O)c1cccc(-c2noc(-c3ccccc3F)n2)c1 [Ataluren (PTC124), Ataluren]",1.74 fold,–
CN(C)C(=O)Nc1cccc(-c2ccc(N(C)C)cc2)c1 [Atglistatin],0.91 fold,–
CC(C)c1c(C(=O)Nc2ccccc2)c(-c2ccccc2)c(-c2ccc(F)cc2)n1CC[C@@H](O)C[C@@H](O)CC(=O)[O-].CC(C)c1c(C(=O)Nc2ccccc2)c(-c2ccccc2)c(-c2ccc(F)cc2)n1CC[C@@H](O)C[C@@H](O)CC(=O)[O-].[Ca+2] [Atorvastatin Calcium],1.45 fold,–
CC(=O)OCOC(=O)CN(CC(=O)OCOC(C)=O)c1ccccc1OCCOc1ccccc1N(CC(=O)OCOC(C)=O)CC(=O)OCOC(C)=O [BAPTA-AM],0.52 fold,–
CC[C@@H]1C(=O)N(C)c2cnc(Nc3ccc(C(=O)NC4CCN(C)CC4)cc3OC)nc2N1C1CCCC1 [BI 2536],0.45 fold,–
CC(C)CCN1c2nc(Nc3cc(F)c(O)c(F)c3)ncc2N(C)C(=O)C1C (stereo not shown) [BI-D1870],0.79 fold,–
C/C(=C\C(=O)Nc1ccccc1C(=O)O)c1ccc2ccccc2c1 [BIBR 1532],2.10 fold,–
COc1ccc2c(c1)c(CC(=O)N1CCOCC1)c(C)n2C(=O)c1ccc(Cl)cc1 [BML-190],0.35 fold,–
COc1ccnc2[nH]cc(C(=O)C(=O)N3CCN(C(=O)c4ccccc4)C[C@H]3C)c12 [BMS-378806],1.70 fold,–
Cn1c(N2CCCCS2(=O)=O)nc(C(=O)NCc2ccc(F)cc2)c(O)c1=O [BMS-707035],1.59 fold,–
O=C(Oc1cc(S(=O)(=O)c2ccccc2)ccc1[N+](=O)[O-])c1ccc(Cl)cc1 [BTB06584],3.11 fold,–
O=C(Nc1cccc(Nc2ncc(Br)c(NCCc3cnc[nH]3)n2)c1)N1CCCC1 [BX-912],1.86 fold,–
"CNC(=O)[C@H](Cc1ccccc1)NC(=O)[C@H](CC(C)C)[C@H](CSc1cccs1)C(=O)NO [Batimastat (BB-94), Batimastat]",1.20 fold,–
Cc1c(-c2ccc(O)cc2)n(Cc2ccc(OCCN3CCCCCC3)cc2)c2ccc(O)cc12 [Bazedoxifene HCl],0.15 fold,–
